Source: patent publication US3932400A, “Thiazole derivatives” (Sumitomo Chemical Company, Limited, priority 1972, dated 1976)

Legend:
β-adrenergic receptor = β-adrenergic receptor blocking activity in open chest dog; type: in vivo; details: relative to propranolol = 1, pentbarbital-anesthetized open chest dog; for β-adrenergic receptor blocking activity in open chest dog (propranolol = 1), DDE: depressive effect on depressor effect (DDE) induced by intravenous isoproternol; for β-adrenergic receptor blocking activity in open chest dog (propranolol = 1), DPC: depressive effect on positive chronotropic (DPC) effect induced by intravenous isoproternol; for β-adrenergic receptor blocking activity in open chest dog (propranolol = 1), DPI: depressive effect on positive inotropic (DPI) effect induced by intravenous isoproternol
Procedure: Note: A determination of β-adrenergic receptor blocking activity of test compounds in open chest dog was as follows. Thus dogs were anesthetized with pentbarbital sodium (administrated 30 - 40 mg./kg. intraveneously). Heart rate, myocardial contractile force and blood pressure were recorded with NIHON KODEN RM-150 polygraph. A depressive effect of test compounds on positive chronotropic (DPC), positive inotropic (DPI) and depressor effect (DDE) induced by isoproternol, which was injected intraveneously at a quarter interval, was determined.

male mice = type: in vivo; details: intravenous; 10 male mice; up and down method

SMILES | β-adrenergic receptor blocking activity in open chest dog (propranolol = 1), DDE (β-adrenergic receptor) | β-adrenergic receptor blocking activity in open chest dog (propranolol = 1), DPC (β-adrenergic receptor) | β-adrenergic receptor blocking activity in open chest dog (propranolol = 1), DPI (β-adrenergic receptor) | Acute toxicity LD50 (male mice) [mg/kg]
CC(=O)Nc1ccc(OCC(O)CNC(C)C)cc1 (stereo not shown) [Practolol, reference compound] | 0.08 | 0.5 | 0.7 | –
CC(C)(C)NCC(O)CSc1nc(-c2ccc(C(N)=O)s2)cs1 (stereo not shown) [Example 37, 2-(3'-t-butylamino-2'-hydroxypropylthio)-4-(5'-carbamoyl-2'-thienyl)thiazole] | 8 | 15 | 15 | 86
